BindingDB's records for doi:10.1107/S0907444905022638 (University of California San Francisco, 2005)

Legend:
Assay in all cases: Thymidylate Synthase (TS) Assay
Details in all cases: pH 7.4; 20 °C
Thymidylate synthase [1] = target: T1, Thymidylate synthase (Pneumocystis carinii, UniProt P13100)
T1 sequence (P13100 whole entry): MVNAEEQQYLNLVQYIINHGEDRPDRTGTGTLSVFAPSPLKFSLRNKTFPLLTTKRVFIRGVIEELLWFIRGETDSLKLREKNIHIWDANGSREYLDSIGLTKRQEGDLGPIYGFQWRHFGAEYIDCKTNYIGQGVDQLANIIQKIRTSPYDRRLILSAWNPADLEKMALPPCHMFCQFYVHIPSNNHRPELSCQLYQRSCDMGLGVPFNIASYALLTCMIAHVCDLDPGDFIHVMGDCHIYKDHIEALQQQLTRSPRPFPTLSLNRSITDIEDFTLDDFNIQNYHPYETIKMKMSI
Description: (§1) TS was assayed spectrophotometrically in the reaction buffer solution containing (6R, 6S)-5, 10-CH2H4folate. The reaction was initiated by the addition of an amount of enzyme yielding a change in absorbance at 340 nm of 0.016/min in the absence of inhibitor. Ki values were obtained from the linear least-squares fit of the residual activity as a function of inhibitor concentration, using suitable equations for competitive inhibition.

Thymidylate synthase [2] = target: T2, Thymidylate synthase (Lacticaseibacillus casei, UniProt P00469)
T2 sequence (P00469 whole entry): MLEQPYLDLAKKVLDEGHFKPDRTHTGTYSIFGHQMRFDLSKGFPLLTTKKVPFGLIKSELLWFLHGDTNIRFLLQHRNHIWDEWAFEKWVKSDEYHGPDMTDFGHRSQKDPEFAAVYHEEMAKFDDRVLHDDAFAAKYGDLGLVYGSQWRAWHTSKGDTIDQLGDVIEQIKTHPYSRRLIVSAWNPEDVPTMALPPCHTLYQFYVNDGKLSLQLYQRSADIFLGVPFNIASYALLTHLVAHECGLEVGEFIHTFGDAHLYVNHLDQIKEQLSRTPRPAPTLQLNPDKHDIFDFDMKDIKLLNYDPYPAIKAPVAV
Description: as §1

Thymidylate synthase [3] = target: Thymidylate synthase (Escherichia coli (strain K12), UniProt P0A884)
Description: as §1

Thymidylate synthase [4] = target: Thymidylate synthase (Homo sapiens, UniProt P04818)
Description: as §1

Thymidylate synthase [5] = target: T3, Thymidylate synthase (Cryptococcus neoformans var. neoformans serotype D (strain B-3501A), UniProt P0CS13)
T3 sequence (P0CS13 whole entry): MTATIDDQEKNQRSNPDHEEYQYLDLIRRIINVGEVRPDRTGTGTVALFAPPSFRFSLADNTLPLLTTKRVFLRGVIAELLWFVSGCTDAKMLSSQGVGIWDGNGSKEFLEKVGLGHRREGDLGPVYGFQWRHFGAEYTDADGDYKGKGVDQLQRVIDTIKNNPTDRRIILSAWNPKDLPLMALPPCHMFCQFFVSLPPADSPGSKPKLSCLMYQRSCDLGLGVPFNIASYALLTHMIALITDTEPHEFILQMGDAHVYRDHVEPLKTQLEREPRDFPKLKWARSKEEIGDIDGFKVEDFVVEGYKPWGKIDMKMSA
Description: as §1

Sequence of Thymidylate synthase (Escherichia coli (strain K12), UniProt P0A884) (P0A884 whole entry): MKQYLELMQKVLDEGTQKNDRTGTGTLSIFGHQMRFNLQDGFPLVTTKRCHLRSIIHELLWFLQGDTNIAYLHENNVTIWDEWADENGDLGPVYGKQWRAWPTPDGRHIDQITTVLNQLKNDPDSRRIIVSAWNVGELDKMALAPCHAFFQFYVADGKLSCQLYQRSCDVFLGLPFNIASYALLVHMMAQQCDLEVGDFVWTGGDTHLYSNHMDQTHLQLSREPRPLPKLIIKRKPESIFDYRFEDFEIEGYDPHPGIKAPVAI
Sequence of Thymidylate synthase (Homo sapiens, UniProt P04818) (P04818 whole entry): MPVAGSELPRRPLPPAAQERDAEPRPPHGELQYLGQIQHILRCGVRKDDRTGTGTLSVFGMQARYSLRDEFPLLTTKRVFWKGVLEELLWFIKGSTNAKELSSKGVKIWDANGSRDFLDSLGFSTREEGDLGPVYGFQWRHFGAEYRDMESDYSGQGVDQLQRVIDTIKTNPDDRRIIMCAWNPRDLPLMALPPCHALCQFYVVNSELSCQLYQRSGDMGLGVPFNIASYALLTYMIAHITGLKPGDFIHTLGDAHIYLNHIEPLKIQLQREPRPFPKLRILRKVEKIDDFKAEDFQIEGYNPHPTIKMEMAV

Ki (Thymidylate synthase [1]): 28 µM | Ki (Thymidylate synthase [2]): 0.8 µM | Ki (Thymidylate synthase [3]): 4.1 µM | Ki (Thymidylate synthase [4]): > 245 µM | Ki (Thymidylate synthase [5]): 4.1 µM
SMILES: O=C1OC(c2ccc(O)c(Br)c2)(c2ccc(O)c(Br)c2)c2cccc3c(Cl)ccc1c23 [4,4-bis(3-bromo-4-hydroxyphenyl)-10-chloro-3-oxatricyclo[7.3.1.0^{5,13}]trideca-1(12),5(13),6,8,10-pentaen-2-one]
